Literature values, collected in patent US4829051A, “N-substituted derivatives of 1-desaminovasopressin” (Vega Laboratories, Inc., priority 1984, dated 1989).

Conditions: in vivo

**Q.** For NC(=O)CC[C@@H]1NC(=O)[C@H](Cc2ccccc2)NC(=O)[C@H](Cc2ccc(O)cc2)NC(=O)CCSSC[C@@H](C(=O)N2CCC[C@H]2C(=O)N[C@H](CCCN=C(N)N)C(=O)NCC(N)=O)NC(=O)[C@H](CC(N)=O)NC1=O [desmopressin], which Antidiuretic activity is on record?
**A.** The Antidiuretic activity was “enhanced and prolonged antidiuretic activity”.

**Q.** And the Pressor activity?
**A.** Its Pressor activity is “low pressor activity”.
